Structures can show the parent of a compound that is named as a salt.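 Values below derive from 48-hour exposures of cells grown in 96-well plates, with endpoints linearly interpolated between the two concentrations bracketing the appropriate inhibition level. GI50 = concentration required for 50% inhibition of growth.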 Active and inactive are the calls of the source. Cut-off read from the data, not from the text of the source: active = GI50 up to about 1.1 µM and inactive = higher.
How the values were obtained:
Experiment in all cases: inhibition of tumour cell growth, NCI panel, 48 h
SK-OV-3 = system: SK-OV-3
EKVX = system: EKVX
SK-MEL-2 = system: SK-MEL-2
Malme-3M = system: Malme-3M
OVCAR-8 = system: OVCAR-8
UO-31 = system: UO-31
TK-10 = system: TK-10
HOP-62 = system: HOP-62
U-251 = system: U-251
HT-29 = system: HT-29
HL-60 = system: HL-60
HOP-92 = system: HOP-92
OVCAR-4 = system: OVCAR-4
A498 = system: A498
LOX IMVI = system: LOX IMVI
CCRF-CEM = system: CCRF-CEM
Hs-578T = system: Hs-578T
T47D = system: T47D
MDA-N = system: MDA-N

Row | SMILES | GI50 (SK-OV-3) | GI50 (EKVX) | GI50 (SK-MEL-2) | GI50 (Malme-3M) | GI50 (OVCAR-8) | GI50 (UO-31) | GI50 (TK-10) | GI50 (HOP-62) | GI50 (U-251) | GI50 (HT-29) | GI50 (HL-60) | GI50 (HOP-92) | GI50 (OVCAR-4) | GI50 (A498) | GI50 (LOX IMVI) | GI50 (CCRF-CEM) | GI50 (Hs-578T) | GI50 (T47D) | GI50 (MDA-N)
1 | COC(=O)c1ccccc1/N=C/c1ccc(N(CCC#N)S(=O)(=O)c2ccccc2)cc1 | > 100 µM (inactive) | > 100 µM (inactive) | > 100 µM (inactive) | > 100 µM (inactive) | > 100 µM (inactive) | > 100 µM (inactive) | > 100 µM (inactive) | > 100 µM (inactive) | > 100 µM (inactive) | > 100 µM (inactive) | > 100 µM (inactive) | > 100 µM (inactive) | > 100 µM (inactive) | > 100 µM (inactive) | > 100 µM (inactive) | > 100 µM (inactive) | – | – | –
2 | CCCc1nn(C)c(CCC(=O)N(Cc2ccccc2)Cc2ccccc2)c1CC | > 100 µM (inactive) | > 100 µM (inactive) | > 100 µM (inactive) | > 100 µM (inactive) | > 100 µM (inactive) | > 100 µM (inactive) | > 100 µM (inactive) | > 100 µM (inactive) | > 100 µM (inactive) | > 100 µM (inactive) | > 100 µM (inactive) | > 100 µM (inactive) | > 100 µM (inactive) | > 100 µM (inactive) | > 100 µM (inactive) | > 100 µM (inactive) | – | – | –
3 | COc1cc2c(c(OC)c1OC)-c1ccc(SC)c(=O)cc1C(CC(=O)Oc1cccc(F)c1)C2 (stereo unspecified) | 0.0385 µM (active) | 2.62 µM (inactive) | 0.397 µM (active) | 0.267 µM (active) | 0.337 µM (active) | 0.753 µM (active) | 61.7 µM (inactive) | 0.685 µM (active) | 0.115 µM (active) | 0.184 µM (active) | 0.0906 µM (active) | 1.24 µM (inactive) | 2.05 µM (inactive) | 0.0545 µM (active) | 0.197 µM (active) | 0.228 µM (active) | – | – | –
4 | COC(=O)C1=C(c2ccc(OC)c(OC)c2)OC(c2ccc(OC)c(OC)c2)C1 (stereo unspecified) | 32.6 µM (inactive) | 39.7 µM (inactive) | 57.9 µM (inactive) | 30 µM (inactive) | 29.5 µM (inactive) | 28.8 µM (inactive) | 43.2 µM (inactive) | 59.4 µM (inactive) | 36.1 µM (inactive) | 22.3 µM (inactive) | 9.82 µM (inactive) | 13.8 µM (inactive) | 27.9 µM (inactive) | 12.7 µM (inactive) | 19.5 µM (inactive) | 31.4 µM (inactive) | – | – | –
5 | FC(F)(F)c1ccc(/N=C/C=C(/Nc2ccc(C(F)(F)F)cc2)c2ccc(Cl)cc2)cc1 | 16.4 µM (inactive) | 15.9 µM (inactive) | 8.34 µM (inactive) | 19.4 µM (inactive) | 15.6 µM (inactive) | 14.5 µM (inactive) | 15.8 µM (inactive) | 18.2 µM (inactive) | 11.3 µM (inactive) | 5.04 µM (inactive) | 12.9 µM (inactive) | 16.5 µM (inactive) | 14 µM (inactive) | – | 1.64 µM (inactive) | 5.22 µM (inactive) | 13 µM (inactive) | 10.3 µM (inactive) | –
6 | CCOC(=O)c1ccc(NCc2ccc3oc(=O)c(-c4ccccc4)nc3c2)cc1 | > 100 µM (inactive) | 52.8 µM (inactive) | > 100 µM (inactive) | 18.8 µM (inactive) | 18.8 µM (inactive) | 27 µM (inactive) | – | > 100 µM (inactive) | 61.2 µM (inactive) | 57.4 µM (inactive) | 3.94 µM (inactive) | 31.2 µM (inactive) | 18 µM (inactive) | 61.1 µM (inactive) | 31.8 µM (inactive) | 3.46 µM (inactive) | – | 12.4 µM (inactive) | 21.5 µM (inactive)
7 | C#Cc1cccc(Nc2ncnc3cc(OCCOC)c(OCCOC)cc23)c1 [ERLOTINIB HYDROCHLORIDE] | 0.286 µM (active) | – | 4.11 µM (inactive) | – | 7.23 µM (inactive) | 3.79 µM (inactive) | – | 31.3 µM (inactive) | 29.4 µM (inactive) | 27.2 µM (inactive) | – | 4.05 µM (inactive) | 27.2 µM (inactive) | – | 4.34 µM (inactive) | > 100 µM (inactive) | 5.01 µM (inactive) | – | 41 µM (inactive)

Source: ChEMBL document CHEMBL1201862, “PubChem BioAssay data set” (2004)
